Data taken from patent US8541380B2, “C-aryl glucoside SGLT2 inhibitors and pharmaceutical compositions comprising same” (Green Cross Corporation, priority 2009, dated 2013).

target: human SGLT2 (Homo sapiens (Human), UniProt P31639); test: hSGLT2 inhibitory activity, sodium-dependent 14C-AMG glucose transport assay in CHO cells expressing hSGLT2; format: cell-based; settings: 14C-AMG uptake, CHO cells expressing hSGLT2, 37° C. for 2 h
Source text: Human SGLT2 (hSGLT2) gene was amplified by PCR from cDNA-Human Adult Normal Tissue Kidney (Invitrogen, Carlsbad, Calif.). The hSGLT2 sequence was cloned into pcDNA3.1(+) for mammalian expression and were stably transfected into Chinese hamster ovary (CHO) cells. SGLT2-expressing clones were selected based on resistance to G418 antibiotic (Geneticin®, Invitrogen, Carlsbad, Calif.) and activity in the ^14C-α-methyl-D-glucopyranoside (^14C-AMG) uptake assay.
For sodium-dependent glucose transport assay, cells expressing hSGLT2 were seeded into a 96-well culture plate at a density of 5×10^4 cells/well in RPMI medium 1640 containing 10% fetal bovine serum. The cells were used 1 day after plating. They were incubated in pretreatment buffer (10 mM HEPES, 5 mM Tris, 140 mM choline chloride, 2 mM KCl, 1 mM CaCl2, and 1 mM MgCl2, pH 7.4) at 37° C. for 10 min. They were then incubated in uptake buffer (10 mM HEPES, 5 mM Tris, 140 mM NaCl, 2 mM KCl, 1 mM CaCl2, 1 mM MgCl2, and 1 mM ^14C-nonlabeled AMG pH 7.4) containing ^14C-labeled (8 uM) and inhibitor or dimethyl sulfoxide (DMSO) vehicle at 37° C. for 2 h. Cells were washed twice with washing buffer (pretreatment buffer containing 10 mM AMG at room temperature) and then the radioactivity was measured using a liquid scintillation counter.

Chain of human SGLT2 (P31639 whole entry): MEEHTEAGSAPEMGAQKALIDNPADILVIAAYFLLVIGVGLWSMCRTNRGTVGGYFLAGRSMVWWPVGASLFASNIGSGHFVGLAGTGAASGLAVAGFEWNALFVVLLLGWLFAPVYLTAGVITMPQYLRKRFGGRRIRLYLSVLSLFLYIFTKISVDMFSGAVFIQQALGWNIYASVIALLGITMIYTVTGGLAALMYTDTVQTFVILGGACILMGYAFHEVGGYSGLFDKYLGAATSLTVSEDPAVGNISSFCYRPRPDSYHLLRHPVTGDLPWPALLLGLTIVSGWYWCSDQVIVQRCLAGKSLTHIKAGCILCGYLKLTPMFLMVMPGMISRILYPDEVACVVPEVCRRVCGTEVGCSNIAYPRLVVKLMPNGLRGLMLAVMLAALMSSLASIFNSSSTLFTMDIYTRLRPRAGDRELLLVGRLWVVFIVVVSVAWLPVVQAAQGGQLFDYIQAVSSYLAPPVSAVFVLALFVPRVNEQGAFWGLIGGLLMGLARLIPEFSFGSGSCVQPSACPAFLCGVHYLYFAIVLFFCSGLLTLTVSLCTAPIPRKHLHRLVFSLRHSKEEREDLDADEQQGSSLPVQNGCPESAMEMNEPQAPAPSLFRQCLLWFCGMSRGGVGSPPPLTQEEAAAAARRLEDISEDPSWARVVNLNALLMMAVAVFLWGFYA

| SMILES | IC50 |
| --- | --- |
| Cn1cccc1-c1nnc(Cc2cc([C@@H]3O[C@H](CO)[C@@H](O)[C@H](O)[C@H]3O)ccc2Cl)s1 [Example 11, (2S,3R,4R,5S,6R)-2-(4-Chloro-3-((5-(1-methyl-1H-pyrrol-2-yl)-1,3,4-thiadiazol-2-yl)methyl)phenyl)-6-(hydroxymethyl)-tetrahydro-2H-pyran-3,4,5-triol] | 119 nM |
| CCCCCCCc1nnc(Cc2cc([C@@H]3O[C@H](CO)[C@@H](O)[C@H](O)[C@H]3O)ccc2Cl)s1 [Example 34, (2S,3R,4R,5S,6R)-2-(4-Chloro-3-((5-heptyl-1,3,4-thiadiazol-2-yl)methyl)phenyl)-6-(hydroxymethyl)-tetrahydro-2H-pyran-3,4,5-triol] | 122 nM |
| Cc1ccc(-c2nnc(Cc3cc(C4O[C@H](CO)[C@@H](O)[C@H](O)[C@H]4O)ccc3Cl)s2)cc1 (stereo partly drawn) [Example 22, (3R,4R,5S,6R)-2-(4-chloro-3-((5-p-tolyl-1,3,4-thiadiazol-2-yl)methyl)phenyl)-6-(hydroxymethyl)-tetrahydro-2H-pyran-3,4,5-triol] | 103 nM |
| OC[C@H]1O[C@@H](c2ccc(Cl)c(Cc3nnc(-c4cc5ccccc5cn4)s3)c2)[C@H](O)[C@@H](O)[C@@H]1O [Example 18, (2S,3R,4R,5S,6R)-2-(4-Chloro-3-((5-(isoquinolin-3-yl)-1,3,4-thiadiazol-2-yl)methyl)phenyl)-6-(hydroxymethyl)-tetrahydro-2H-pyran-3,4,5-triol] | 81.6 nM |
| Cc1ccoc1-c1nnc(Cc2cc([C@@H]3O[C@H](CO)[C@@H](O)[C@H](O)[C@H]3O)ccc2Cl)s1 [Example 3, (2S,3R,4R,5S,6R)-2-(4-Chloro-3-((5-(3-methylfuran-2-yl)-1,3,4-thiadiazol-2-yl)methyl)phenyl)-6-(hydroxymethyl)-tetrahydro-2H-pyran-3,4,5-triol] | 106 nM |
| OC[C@H]1O[C@@H](c2ccc(Cl)c(Cc3nnc(-c4cnc(-c5ccncc5)s4)s3)c2)[C@H](O)[C@@H](O)[C@@H]1O [Example 14, (2S,3R,4R,5S,6R)-2-(4-Chloro-3-((5-(2-(pyridin-4-yl)thiazol-5-yl)-1,3,4-thiadiazol-2-yl)methyl)phenyl)-6-(hydroxymethyl)-tetrahydro-2H-pyran-3,4,5-triol] | 72.6 nM |
| CCCc1ccc(-c2nnc(Cc3cc(C4O[C@H](CO)[C@@H](O)[C@H](O)[C@H]4O)ccc3Cl)s2)cc1 (stereo partly drawn) [Example 23, (3R,4R,5S,6R)-2-(4-Chloro-3-((5-(4-propylphenyl)-1,3,4-thiadiazol-2-yl)methyl)phenyl)-6-(hydroxymethyl)-tetrahydro-2H-pyran-3,4,5-triol] | 24.9 nM |
| OC[C@H]1OC(c2ccc(Cl)c(Cc3nnc(C4CCCCC4)s3)c2)[C@H](O)[C@@H](O)[C@@H]1O (stereo partly drawn) [Example 24, (3R,4R,5S,6R)-2-(4-Chloro-3-((5-cyclohexyl-1,3,4-thiadiazol-2-yl)methyl)phenyl)-6-(hydroxymethyl)-tetrahydro-2H-pyran-3,4,5-triol] | 542 nM |
| OC[C@H]1O[C@@H](c2ccc(Cl)c(Cc3nnc(-c4cscn4)s3)c2)[C@H](O)[C@@H](O)[C@@H]1O [Example 13, (2S,3R,4R,5S,6R)-2-(4-Chloro-3-((5-(thiazol-4-yl)-1,3,4-thiadiazol-2-yl)methyl)phenyl)-6-(hydroxymethyl)tetrahydro-2H-pyran-3,4,5-triol] | 21.8 nM |
| OC[C@H]1O[C@@H](c2ccc(Cl)c(Cc3nnc(-c4ccc5ccccc5n4)s3)c2)[C@H](O)[C@@H](O)[C@@H]1O [Example 17, (2S,3R,4R,5S,6R)-2-(4-Chloro-3-((5-(quinolin-2-yl)-1,3,4-thiadiazol-2-yl)methyl)phenyl)-6-(hydroxymethyl)-tetrahydro-2H-pyran-3,4,5-triol] | 562 nM |
| CC(Cc1nnc(Cc2cc(C3O[C@H](CO)[C@@H](O)[C@H](O)[C@H]3O)ccc2Cl)s1)c1ccccc1 (stereo partly drawn) [Example 26, (3R,4R,5S,6R)-2-(4-Chloro-3-((5-(2-phenylpropyl)-1,3,4-thiadiazol-2-yl)methyl)phenyl)-6-(hydroxymethyl)-tetrahydro-2H-pyran-3,4,5-triol] | 548 nM |
| OC[C@H]1O[C@@H](c2ccc(Cl)c(Cc3nnc(-c4ccco4)s3)c2)[C@H](O)[C@@H](O)[C@@H]1O [Example 1, (2S,3R,4R,5S,6R)-2-(4-Chloro-3-((5-(furan-2-yl)-1,3,4-thiadiazol-2-yl)methyl)phenyl)-6-(hydroxymethyl)-tetrahydro-2H-pyran-3,4,5-triol] | 7.03 nM |
| OC[C@H]1OC(c2ccc(Cl)c(Cc3nnc(/C=C/c4ccccc4)s3)c2)[C@H](O)[C@@H](O)[C@@H]1O (stereo partly drawn) [Example 27, (3R,4R,5S,6R,E)-2-(4-Chloro-3-((5-styryl-1,3,4-thiadiazol-2-yl)methyl)phenyl)-6-(hydroxymethyl)-tetrahydro-2H-pyran-3,4,5-triol] | 730 nM |
| OC[C@H]1O[C@@H](c2ccc(Cl)c(Cc3nnc(C4CCCC4)s3)c2)[C@H](O)[C@@H](O)[C@@H]1O [Example 19, (2S,3R,4R,5S,6R)-2-(4-Chloro-3-((5-cyclopentyl-1,3,4-thiadiazol-2-yl)methyl)phenyl)-6-(hydroxymethyl)tetrahydro-2H-pyran-3,4,5-triol] | 445 nM |
| OC[C@H]1O[C@@H](c2ccc(Cl)c(Cc3nnc(-c4ccc(Cl)s4)s3)c2)[C@H](O)[C@@H](O)[C@@H]1O [Example 8, (2S,3R,4R,5S,6R)-2-(4-Chloro-3-((5-(5-chlorothiophen-2-yl)-1,3,4-thiadiazol-2-yl)methyl)phenyl)-6-(hydroxymethyl)-tetrahydro-2H-pyran-3,4,5-triol] | 18.2 nM |

The next lines start with the values.

| IC50 | SMILES |
| --- | --- |
| 758 nM | OC[C@H]1O[C@@H](c2ccc(Cl)c(Cc3nnc(CC(F)(F)F)s3)c2)[C@H](O)[C@@H](O)[C@@H]1O [Example 39, (2S,3R,4R,5S,6R)-2-(4-Chloro-3-((5-(2,2,2-trifluoroethyl)-1,3,4-thiadiazol-2-yl)methyl)phenyl)-6-(hydroxymethyl)tetrahydro-2H-pyran-3,4,5-triol] |
| 24.8 nM | OC[C@H]1O[C@@H](c2cc(Cc3nnc(-c4ccco4)s3)c(O)c3ccccc23)[C@H](O)[C@@H](O)[C@@H]1O [Example 94, (2S,3R,4R,5S,6R)-2-(3-((5-(Furan-2-yl)-1,3,4-thiadiazol-2-yl)methyl)-4-hydroxynaphthalen-1-yl)-6-(hydroxymethyl)-tetrahydro-2H-pyran-3,4,5-triol] |
| 24.9 nM | COc1cnc(Cc2cc([C@@H]3O[C@H](CO)[C@@H](O)[C@H](O)[C@H]3O)ccc2Cl)nn1 [Example 91, (2S,3R,4R,5S,6R)-2-(4-Chloro-3-((6-methoxy-1,2,4-triazin-3-yl)methyl)phenyl)-6-(hydroxymethyl)tetrahydro-2H-pyran-3,4,5-triol] |
| 638 nM | Cc1cccc(-c2nnc(Cc3cc([C@@H]4O[C@H](CO)[C@@H](O)[C@H](O)[C@H]4O)ccc3Cl)s2)n1 [Example 44, (2S,3R,4R,5S,6R)-2-(4-Chloro-3-((5-(6-methylpyridin-2-yl)-1,3,4-thiadiazol-2-yl)methyl)phenyl)-6-(hydroxymethyl)-tetrahydro-2H-pyran-3,4,5-triol] |
| 323 nM | OC[C@H]1O[C@@H](c2cc(Cc3nnc(-c4ccco4)s3)c3ccccc3c2)[C@H](O)[C@@H](O)[C@@H]1O [Example 95, (2S,3R,4R,5S,6R)-2-(4-((5-(Furan-2-yl)-1,3,4-thiadiazol-2-yl)methyl)naphthalen-2-yl)-6-(hydroxymethyl)-tetrahydro-2H-pyran-3,4,5-triol] |
| 532 nM | Cc1ccc2nc(Cc3cc([C@@H]4O[C@H](CO)[C@@H](O)[C@H](O)[C@H]4O)ccc3Cl)nnc2c1 [Example 87, (2S,3R,4R,5S,6R)-2-(4-Chloro-3-((7-methylbenzo[e][1,2,4]triazin-3-yl)methyl)phenyl)-6-(hydroxymethyl)tetrahydro-2H-pyran-3,4,5-triol] |
| 190 nM | OC[C@H]1O[C@@H](c2ccc(Cl)c(Cc3nnc(-c4ccnnc4)s3)c2)[C@H](O)[C@@H](O)[C@@H]1O [Example 43, (2S,3R,4R,5S,6R)-2-(4-Chloro-3-((5-(pyridazin-4-yl)-1,3,4-thiadiazol-2-yl)methyl)phenyl)-6-(hydroxymethyl)-tetrahydro-2H-pyran-3,4,5-triol] |
